Source: patent US20250163047A1, “HETEROCYCLIC COMPOUNDS, COMPOSITIONS THEREOF, AND METHODS OF TREATMENT THEREWITH” (BeiGene, Ltd., priority 2022, published 2025)

Assays:
Cbl-b (aa36-427) = target: T1, Cbl-b (aa36-427) (Homo sapiens, UniProt Q13191); test: Co-expressed Cbl-b with BirA biochemical assay (CBLB/E2-Ub binding, HTRF); conditions: 0.6 nM Cbl-b co-expressed with BirA, HTRF; read-out: co-express CBLB/E2-Ub-binding assay IC50
T1 construct: Cbl-b (aa36-427, in-house); made in house
Description: (§1) The assay in the absence of a Cbl-b/Cbl inhibitor, where phosphorylation of Cbl-b/Cbl by the Src kinase allows UbcH5B-Ub to bind to Cbl-b/Cbl and brings the Bodipy-Fluorescein tagged ubiquitin in proximity to the streptavidin-terbium bound to the N-terminal biotinylated Avi-tagged Cbl-b/Cbl. […] The lack of a FRET signal indicates Cbl-b/Cbl is inhibited by the Cbl-b/Cbl inhibitor.

Cbl (aa49-434) = target: T2, Cbl (aa49-434) (Homo sapiens, UniProt P22681); test: Co-expressed Cbl with BirA biochemical assay (CBL/E2-Ub binding, HTRF); conditions: 0.6 nM Cbl co-expressed with BirA, read-out: co-express CBL/E2-Ub-binding assay IC50
T2 construct: Cbl (aa49-434, in-house); made in house
T2 sequence (P22681 49-434): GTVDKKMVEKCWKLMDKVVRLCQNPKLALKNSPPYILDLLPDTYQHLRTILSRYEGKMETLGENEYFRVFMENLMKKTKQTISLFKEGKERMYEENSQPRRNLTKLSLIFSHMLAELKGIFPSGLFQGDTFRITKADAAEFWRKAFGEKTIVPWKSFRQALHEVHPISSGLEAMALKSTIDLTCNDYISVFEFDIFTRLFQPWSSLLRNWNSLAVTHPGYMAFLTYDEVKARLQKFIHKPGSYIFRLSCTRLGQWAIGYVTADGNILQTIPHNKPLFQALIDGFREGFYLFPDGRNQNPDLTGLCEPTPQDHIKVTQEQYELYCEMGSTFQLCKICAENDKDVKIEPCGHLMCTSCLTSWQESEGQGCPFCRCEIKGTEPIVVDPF
Description: as §1

T1 sequence (Q13191 36-427): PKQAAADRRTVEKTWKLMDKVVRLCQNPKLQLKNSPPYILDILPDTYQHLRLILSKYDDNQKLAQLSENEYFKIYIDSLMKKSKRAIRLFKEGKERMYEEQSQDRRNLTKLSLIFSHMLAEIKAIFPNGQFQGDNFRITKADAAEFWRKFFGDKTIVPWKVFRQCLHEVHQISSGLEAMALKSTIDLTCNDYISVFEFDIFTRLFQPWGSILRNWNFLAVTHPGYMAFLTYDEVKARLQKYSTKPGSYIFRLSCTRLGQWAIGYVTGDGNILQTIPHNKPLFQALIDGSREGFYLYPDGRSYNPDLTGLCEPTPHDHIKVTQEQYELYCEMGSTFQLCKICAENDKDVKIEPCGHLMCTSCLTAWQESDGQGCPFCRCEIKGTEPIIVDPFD

Cc1cnc2c(C(=O)Nc3cccc([C@]4(c5nncn5C)C[C@@H](C)C4)c3)cc(CN[C@@H](C)C3CC3)cn12 [Compound A59, 6-((((S)-1-cyclopropylethyl)amino)methyl)-3-methyl-N-(3-((1s,3R)-3-methyl-1-(4-methyl-4H-1,2,4-triazol-3-yl)cyclobutyl)phenyl)imidazo[1,2-a]pyridine-8-carboxamide]
IC50 (Cbl-b (aa36-427)): 1.7 nM | IC50 (Cbl (aa49-434)): 5.3 nM

Cn1cnnc1[C@]1(c2cccc(NC(=O)c3cc(CNCC4(C)CCC4)c4c(n3)C(C)(C)CC4)c2)C[C@H](CC#N)C1 [Compound C37, N-(3-((1s, 3s)-3-(cyanomethyl)-1-(4-methyl-4H-1,2,4-triazol-3-yl)cyclobutyl)phenyl)-7,7-dimethyl-4-((((1-methylcyclobutyl)methyl)amino)methyl)-6,7-dihydro-5H-cyclopenta[b]pyridine-2-carboxamide]
IC50 (Cbl-b (aa36-427)): 0.9 nM | IC50 (Cbl (aa49-434)): 2.4 nM

Cn1cnnc1C[C@]1(c2cccc(NC(=O)c3cc(CNCC4(C)CCCC4)cn4ccnc34)c2)C[C@H](C#N)C1 [Compound A24, N-(3-((1r, 3r)-3-cyano-1-((4-methyl-4H-1,2,4-triazol-3-yl)methyl)cyclobutyl)phenyl)-6-((((1-methylcyclopentyl)methyl)amino)methyl)imidazo[1,2-a]pyridine-8-carboxamide]
IC50 (Cbl-b (aa36-427)): 2.9 nM | IC50 (Cbl (aa49-434)): 8.6 nM

C[C@H]1CCCN(Cc2cc(C(=O)Nc3cccc([C@]4(Cc5nncn5C)C[C@@H](C#N)C4)c3)nc3cc[nH]c23)C1 [Compound B7, N-(3-((1r,3S)-3-cyano-1-((4-methyl-4H-1,2,4-triazol-3-yl)methyl)cyclobutyl)phenyl)-7-(((S)-3-methylpiperidin-1-yl)methyl)-1H-pyrrolo[3,2-b]pyridine-5-carboxamide]
IC50 (Cbl-b (aa36-427)): 1.9 nM | IC50 (Cbl (aa49-434)): 6.4 nM

Cn1cnnc1[C@]1(c2cccc(NC(=O)c3cc(CNC4(C)CC4)cc4c(F)cnn34)c2)C[C@H](CC#N)C1 [Compound A94, N-(3-((1s, 3s)-3-(cyanomethyl)-1-(4-methyl-4H-1,2,4-triazol-3-yl)cyclobutyl)phenyl)-3-fluoro-5-(((1-methylcyclopropyl)amino)methyl)pyrazolo[1,5-a]pyridine-7-carboxamide]
IC50 (Cbl-b (aa36-427)): 0.5 nM | IC50 (Cbl (aa49-434)): 5.9 nM

Cc1cnc2c(C(=O)Nc3cncc([C@]4(c5nncn5C)C[C@@H](C)C4)c3)cc(CNC3(C)CCC3)cn12 [Compound A80, 3-methyl-N-(5-((1s, 3s)-3-methyl-1-(4-methyl-4H-1,2,4-triazol-3-yl)cyclobutyl)pyridin-3-yl)-6-(((1-methylcyclobutyl)amino)methyl)imidazo[1,2-a]pyridine-8-carboxamide]
IC50 (Cbl-b (aa36-427)): 2 nM | IC50 (Cbl (aa49-434)): 13 nM

Cn1cnnc1[C@]1(c2cccc(NC(=O)c3cc(CNC4(C)CCC4)c4ccsc4n3)c2)C[C@H](CC#N)C1 [Compound B39, 4-{[(1-methylcyclobutyl)amino]methyl}-N-{3-[(1s, 3s)-3-(cyanomethyl)-1-(4-methyl-1,2,4-triazol-3-yl)cyclobutyl]phenyl}thieno[2,3-b]pyridine-6-carboxamide]
IC50 (Cbl-b (aa36-427)): 0.8 nM | IC50 (Cbl (aa49-434)): 8.8 nM

CC(C)CNCc1cc(C(=O)Nc2cccc([C@]3(c4nncn4C)C[C@@H](CC#N)C3)c2)nc2cc[nH]c12 [Compound B29, N-(3-((1s, 3s)-3-(cyanomethyl)-1-(4-methyl-4H-1,2,4-triazol-3-yl)cyclobutyl)phenyl)-7-((isobutylamino)methyl)-1H-pyrrolo[3,2-b]pyridine-5-carboxamide]
IC50 (Cbl-b (aa36-427)): 1.2 nM | IC50 (Cbl (aa49-434)): 2.3 nM

Cn1cnnc1[C@]1(c2cccc(NC(=O)c3cc(CNC4(C)CC4)cc4c(Cl)cnn34)c2)C[C@H](C)C1 [Compound A96, 3-chloro-N-(3-((1s, 3s)-3-methyl-1-(4-methyl-4H-1,2,4-triazol-3-yl)cyclobutyl)phenyl)-5-(((1-methylcyclopropyl)amino)methyl)pyrazolo[1,5-a]pyridine-7-carboxamide]
IC50 (Cbl-b (aa36-427)): 0.5 nM | IC50 (Cbl (aa49-434)): 3.2 nM

Cn1cnnc1[C@]1(c2cccc(NC(=O)c3cc(CNCC4(F)CCC4)cn4ccnc34)c2)C[C@H](CC#N)C1 [Compound A37, N-(3-((1s, 3s)-3-(cyanomethyl)-1-(4-methyl-4H-1,2,4-triazol-3-yl)cyclobutyl)phenyl)-6-((((1-fluorocyclobutyl)methyl)amino)methyl)imidazo[1,2-a]pyridine-8-carboxamide]
IC50 (Cbl-b (aa36-427)): 0.8 nM | IC50 (Cbl (aa49-434)): 4.8 nM

Cc1cnc2c(C(=O)Nc3cncc([C@]4(c5nncn5C)C[C@@H](C)C4)c3)cc(CNCC3CCC3)cn12 [Compound A56, 6-{[(cyclobutylmethyl)amino]methyl}-3-methyl-N-{5-[(1r, 3s)-3-methyl-1-(4-methyl-1,2,4-triazol-3-yl)cyclobutyl]pyridin-3-yl}imidazo[1,2-a]pyridine-8-carboxamide]
IC50 (Cbl-b (aa36-427)): 1.5 nM | IC50 (Cbl (aa49-434)): 4.1 nM

C[C@@H]1CN(Cc2cc(C(=O)Nc3cccc([C@]4(Cc5nncn5C)C[C@@H](C#N)C4)c3)c3nccn3c2)CC[C@@H]1F [Compound A48, N-(3-((1r,3R)-3-cyano-1-((4-methyl-4H-1,2,4-triazol-3-yl)methyl)cyclobutyl)phenyl)-6-(((3R,4S)-4-fluoro-3-methylpiperidin-1-yl)methyl)imidazo[1,2-a]pyridine-8-carboxamide]
IC50 (Cbl-b (aa36-427)): 0.8 nM | IC50 (Cbl (aa49-434)): 2.7 nM

Cn1cnnc1[C@]1(c2cccc(NC(=O)c3cc(CNC4(C)CCC4)c4c(n3)C(F)(F)CC4)c2)C[C@H](CC#N)C1 [Compound C42, N-(3-((1s, 3s)-3-(cyanomethyl)-1-(4-methyl-4H-1,2,4-triazol-3-yl)cyclobutyl)phenyl)-7,7-difluoro-4-(((1-methylcyclobutyl)amino)methyl)-6,7-dihydro-5H-cyclopenta[b]pyridine-2-carboxamide]
IC50 (Cbl-b (aa36-427)): 1.5 nM | IC50 (Cbl (aa49-434)): 25.1 nM

Cn1ccc2nc(C(=O)Nc3cccc([C@]4(c5nncn5C)C[C@@H](CC#N)C4)c3)cc(CNC3(C)CC3)c21 [Compound B57, N-(3-((1s, 3s)-3-(cyanomethyl)-1-(4-methyl-4H-1,2,4-triazol-3-yl)cyclobutyl)phenyl)-1-methyl-7-(((1-methylcyclopropyl)amino)methyl)-1H-pyrrolo[3,2-b]pyridine-5-carboxamide]
IC50 (Cbl-b (aa36-427)): 1.3 nM | IC50 (Cbl (aa49-434)): 15 nM

Cn1cnnc1[C@]1(c2cncc(NC(=O)c3cc(CNC4(C)CCC4)cn4c(Cl)cnc34)c2)C[C@H](C)C1 [Compound A82, 3-chloro-N-(5-((1s, 3s)-3-methyl-1-(4-methyl-4H-1,2,4-triazol-3-yl)cyclobutyl)pyridin-3-yl)-6-(((1-methylcyclobutyl)amino)methyl)imidazo[1,2-a]pyridine-8-carboxamide]
IC50 (Cbl-b (aa36-427)): 0.7 nM | IC50 (Cbl (aa49-434)): 1.8 nM

Cn1cnnc1[C@]1(c2cccc(NC(=O)c3cc(CNC4(C)CCC4)c4[nH]ccc4n3)c2)C[C@H](CC#N)C1 [Compound B27, N-(3-((1s, 3s)-3-(cyanomethyl)-1-(4-methyl-4H-1,2,4-triazol-3-yl)cyclobutyl)phenyl)-7-(((1-methylcyclobutyl)amino)methyl)-1H-pyrrolo[3,2-b]pyridine-5-carboxamide]
IC50 (Cbl-b (aa36-427)): 1.2 nM | IC50 (Cbl (aa49-434)): 8.4 nM

C[C@H](NCc1cc(C(=O)Nc2cccc([C@]3(c4nncn4C)C[C@@H](C)C3)c2)nc2c1OCC2(C)C)C1CCCC1 [Compound C34, 7-((((S)-1-cyclopentylethyl)amino)methyl)-3,3-dimethyl-N-(3-((1s,3R)-3-methyl-1-(4-methyl-4H-1,2,4-triazol-3-yl)cyclobutyl)phenyl)-2,3-dihydrofuro[3,2-b]pyridine-5-carboxamide]
IC50 (Cbl-b (aa36-427)): 1.3 nM | IC50 (Cbl (aa49-434)): 5.1 nM

Cn1cnnc1CC1(c2cccc(NC(=O)c3cc(CN4CCCC(C(F)(F)F)C4)c4[nH]ccc4n3)c2)COC1 (stereo not shown) [Compound B9, N-(3-(3-((4-methyl-4H-1,2,4-triazol-3-yl)methyl)oxetan-3-yl)phenyl)-7-((3-(trifluoromethyl)piperidin-1-yl)methyl)-1H-pyrrolo[3,2-b]pyridine-5-carboxamide]
IC50 (Cbl-b (aa36-427)): 25.9 nM | IC50 (Cbl (aa49-434)): 42.9 nM

Cn1cnnc1[C@]1(c2cncc(NC(=O)c3cc(CNCC4CCC4)c4c(n3)C(F)(F)CC4)c2)C[C@H](C)C1 [Compound C52, 4-{[(cyclobutylmethyl)amino]methyl}-7,7-difluoro-N-{5-[(1r, 3s)-3-methyl-1-(4-methyl-1,2,4-triazol-3-yl)cyclobutyl]pyridin-3-yl}-5H,6H-cyclopenta[b]pyridine-2-carboxamide]
IC50 (Cbl-b (aa36-427)): 3.3 nM | IC50 (Cbl (aa49-434)): 14.8 nM

Cn1cnnc1[C@]1(c2cccc(NC(=O)c3cc(CNCC4CCC4)c4c(n3)C(C)(C)CN4)c2)C[C@H](CC#N)C1 [Compound C30, N-(3-((1s, 3s)-3-(cyanomethyl)-1-(4-methyl-4H-1,2,4-triazol-3-yl)cyclobutyl)phenyl)-7-(((cyclobutylmethyl)amino)methyl)-3,3-dimethyl-2,3-dihydro-1H-pyrrolo[3,2-b]pyridine-5-carboxamide]
IC50 (Cbl-b (aa36-427)): 1.4 nM | IC50 (Cbl (aa49-434)): 3.3 nM
